# Activity calls are given as the source filed them. The rule behind the calls is not given here.
# Experiments:
# [1] = test system: HepG2; experiment: Antimigratory activity against human HepG2 cells assessed as reduction in cell migration at IC50 by transwell migration assay; assay type: functional, cell-based; settings: TDE = time-dependent effect
# [2] = test system: MDA-MB-231; experiment: Cytotoxicity against human MDA-MB-231 cells assessed as reduction in cell viability by trypan blue assay; assay type: functional, cell-based
# [3] = test system: MCF7; experiment: Antimigratory activity against human MCF7 cells assessed as wound healing at IC50 incubated for 24 hrs by inverted microscopic analysis (reference value: 27.64 %); assay type: functional
# [4] = test system: HepG2; experiment: Induction of apoptosis in human HepG2 cells assessed as necrotic cells by measuring intense red fluorescence at IC50 incubated for 24 hrs by Alexa Fluor488-annexin V/PI staining based fluorescence analysis; assay type: functional, cell-based
# [5] = Toxicity in female Wistar rat assessed as apathy occurence at 2000 mg/kg, po observed for 48 hrs; assay type: organism-based; settings: in vivo
# [6] = test system: HepG2; experiment: Antiproliferative activity against human HepG2 cells harboring CD133+ assessed as reduction in cell viability incubated for 24 hrs by MTT assay; assay type: functional, cell-based
# [7] = Toxicity in Wistar rat assessed as normal ovary with primary to tertiary developing follicles and mature follicles at 2000 mg/kg, po and measured on day 15 by microscopic analysis; assay type: organism-based; settings: in vivo, 360 h, time 15 day
# [8] = test system: HepG2; experiment: Cytotoxicity against human HepG2 cells assessed as reduction in cell viability by trypan blue assay; assay type: functional, cell-based
# [9] = Toxicity in Wistar rat assessed as effect on creatinine level in serum at 5 to 2000 mg/kg, po and measured on day 15; assay type: organism-based; settings: in vivo, 360 h, dose 5-2000 mg/kg, time 15 day
# [10] = Toxicity in Wistar rat assessed as effect on uric acid level in serum at 5 to 2000 mg/kg, po and measured on day 15; assay type: organism-based; settings: in vivo, 360 h, dose 5-2000 mg/kg, time 15 day
# [11] = test system: MDA-MB-231; experiment: Induction of apoptosis in human MDA-MB-231 cells assessed as early apoptotic cells at IC50 incubated for 72 hrs by Alexa Fluor488-annexin V/PI staining based flow cytometric analysis (Rvb= 0.6 %); assay type: functional
# [12] = Toxicity in Wistar rat assessed as normal cardiac muscles and cardiac fibers with intact length without inflammatory changes at 2000 mg/kg, po and measured on day 15 by microscopic analysis; assay type: organism-based; settings: in vivo, 360 h, time 15 day
# [13] = Toxicity in Wistar rat assessed as body weight loss at 2000 mg/kg, po and observed for 1 week; assay type: organism-based; settings: in vivo, 168 h, time 1 weeks
# [14] = Toxicity in Wistar rat assessed as normal renal parenchyma with intact renal tubules and glomeruli without inflammatory or pathological changes at 2000 mg/kg, po and measured on day 15 by microscopic analysis; assay type: organism-based; settings: in vivo, 360 h, time 15 day
# [15] = test system: HepG2; experiment: Induction of apoptosis in human HepG2 cells assessed as early apoptotic cells by measuring green fluorescence at IC50 incubated for 24 hrs by Alexa Fluor488-annexin V/PI staining based fluorescence analysis; assay type: functional, cell-based
# [16] = AUC (0 to infinity) in Wistar rat at 5 mg/kg, po by HPLC-MS analysis; assay type: ADME, organism-based; parameters: route oral, time infinity, dose 5 mg/kg; settings: in vivo
# [17] = test system: HepG2; experiment: Induction of apoptosis in human HepG2 cells assessed as shrinkage of nucleus by measuring orange coloured fluorescence at IC50 incubated for 24 hrs by EtBr/AO staining based fluorescence microscopic analysis; assay type: functional, cell-based
# [18] = Inhibition of VEGF expression in human HUVEC at IC50 incubated for 48 hrs by FITC based flow cytometry analysis relative to control; assay type: functional
# [19] = test system: HepG2; experiment: Antimigratory activity against human HepG2 cells assessed as reduction in cell migration at IC50 incubated for 24 hrs by transwell migration assay; assay type: functional, cell-based
# [20] = Toxicity in Wistar rat assessed as toxic signs at 5 to 300 mg/kg, po and observed for 14 days; assay type: organism-based; settings: in vivo, 336 h, dose 5-300 mg/kg, time 14 day
# [21] = test system: MDA-MB-231; experiment: Cytotoxicity against human MDA-MB-231 cells assessed as reduction in cell viability incubated for 24 hrs by MTT assay; assay type: functional, cell-based
# [22] = test system: HepG2; experiment: Induction of apoptosis in human HepG2 cells assessed as apoptotic index at IC50 incubated for 24 hrs by EtBr/AO staining based fluorescence microscopic analysis (reference value: 1.99 %); assay type: functional
# [23] = Inhibition of VEGFR2 expression in human HUVEC assessed as mean fluorescence intensity at IC50 incubated for 48 hrs by FITC based flow cytometry analysis (reference value: 49.24 +/- 0.47); assay type: functional
# [24] = test system: MCF7; experiment: Cytotoxicity against human MCF7 cells assessed as reduction in cell viability incubated for 24 hrs by MTT assay; assay type: functional, cell-based
# [25] = Toxicity in Wistar rat assessed as effect on ALP level in serum at 5 to 2000 mg/kg, po and measured on day 15; assay type: organism-based; settings: in vivo, 360 h, dose 5-2000 mg/kg, time 15 day
# [26] = Toxicity in Wistar rat assessed as effect on hematological parameters at 5 to 2000 mg/kg, po and measured on day 15; assay type: organism-based; settings: in vivo, 360 h, dose 5-2000 mg/kg, time 15 day
# [27] = Half life in Wistar rat at 5 mg/kg, po measured upto 72 hrs by HPLC-MS analysis; assay type: ADME, organism-based; settings: in vivo
# [28] = test system: HepG2; experiment: Inhibition of epithelial-mesenchymal transition in TGF-beta-induced human HepG2 cells assessed as E-cadherin expression at IC50 incubated for 48 hrs by flow cytometry analysis (reference value: 2.92 %); assay type: functional; parameters: scale not given: the % may be the effect or the level left
# [29] = test system: HepG2; experiment: Inhibition of epithelial-mesenchymal transition in TGF-beta-induced human HepG2 cells assessed as vimentin expression at IC50 incubated for 48 hrs by flow cytometry analysis (reference value: 98.19 %); assay type: functional; parameters: scale not given: the % may be the effect or the level left
# [30] = test system: HepG2; experiment: Antiproliferative activity against human HepG2 cells harboring CD44+ assessed as reduction in cell viability incubated for 24 hrs by MTT assay; assay type: functional, cell-based
# [31] = test system: HepG2; experiment: Induction of apoptosis in human HepG2 cells assessed as necrotic cells by measuring orange-red coloured flourescence at IC50 incubated for 24 hrs by EtBr/AO staining based fluorescence microscopic analysis; assay type: functional, cell-based
# [32] = Toxicity in Wistar rat assessed as effect on water consumption at 5 to 2000 mg/kg, po and observed for 14 days; assay type: organism-based; settings: in vivo, 336 h, dose 5-2000 mg/kg, time 14 day
# [33] = Toxicity in Wistar rat assessed as effect on relative weight of liver at 5 to 2000 mg/kg, po and measured on day 15; assay type: organism-based; settings: in vivo, 360 h, dose 5-2000 mg/kg, time 15 day
# [34] = MRT in Wistar rat at 5 mg/kg, po measured upto 72 hrs by HPLC-MS analysis; assay type: ADME, organism-based; settings: in vivo
# [35] = Retention time in Wistar rat plasma by HPLC-MS analysis; assay type: ADME, cell-free
# [36] = Toxicity in Wistar rat assessed as effect on relative weight of kidney at 5 to 2000 mg/kg, po and measured on day 15; assay type: organism-based; settings: in vivo, 360 h, dose 5-2000 mg/kg, time 15 day
# [37] = test system: HUVEC; experiment: Induction of apoptosis in human HUVEC assessed as early apoptotic cells at IC50 incubated for 48 hrs by annexin V-FITC and PI staining based flow cytometry (reference value: <1%); assay type: functional
# [38] = Toxicity in female Wistar rat assessed as hard abdomen at 2000 mg/kg, po observed for 48 hrs; assay type: organism-based; settings: in vivo
# [39] = test system: HUVEC; experiment: Induction of apoptosis in human HUVEC assessed as late apoptotic cells at IC50 incubated for 48 hrs by annexin V-FITC and PI staining based flow cytometry; assay type: functional
compound,measurement,setting,value
CC(=O)Nc1ccc(Oc2cccc3c(NC(=O)Nc4cccc(C(F)(F)F)c4)cccc23)cc1,Activity,[1],Tde
same,IC50,[2],3580 nM
same,inhibition,[2],Dose-dependent effect
same,Activity,[3],3.02%
same,Activity,[4],Active
same,Activity,[5],Toxic
same,inhibition,[6],Dose-dependent effect
same,IC50,"[6]; HepG2, 24 h",2200 nM
same,Activity,[7],Non-Toxic
same,IC50,[8],1170 nM
same,inhibition,[8],Dose-dependent effect
same,Activity,[9],Non-Toxic
same,Activity,[10],Non-Toxic
same,Activity,[11],68.2%
same,Activity,[12],Non-Toxic
same,Activity,[13],Toxic
same,Activity,[14],Non-Toxic
same,Activity,[15],Active
same,AUC(0-inf),[16],625 µg·h/mL
same,Activity,[17],Active
same,fold change (FC),[18],0.39
same,Activity,[19],Active
same,Activity,[20],Non-Toxic
same,inhibition,[21],Dose-dependent effect
same,IC50,"[21]; MDA-MB-231, 24 h",1410 nM
same,Activity,[22],86.66%
same,Flu intensity,[23],18.41
same,inhibition,[24],Dose-dependent effect
same,Activity,[25],Non-Toxic
same,Activity,[26],Non-Toxic
same,half-life,[27],11.9 h
same,Activity,[28],46.7%
same,Activity,[29],20.44%
same,inhibition,[30],Dose-dependent effect
same,IC50,"[30]; HepG2, 24 h",3290 nM
same,Activity,[31],Active
same,Activity,[32],Non-Toxic
same,Activity,[33],Non-Toxic
same,MRT,[34],14.3 h
same,Retention_time,[35],10.17 min
same,Activity,[36],Non-Toxic
same,Activity,[37],37.53%
same,Activity,[38],Toxic
same,Activity,[39],6.09%

# From ChEMBL document CHEMBL4706603, “Discovery of VEGFR-2 inhibitors exerting significant anticancer activity against CD44+ and CD133+ cancer stem cells (CSCs): Reversal of TGF-β induced epithelial-mesenchymal transition (EMT) in hepatocellular carcinoma” (Eur J Med Chem, 2020)
